# According to PubChem BioAssay AID588523 (Johns Hopkins Ion Channel Center, 2011):
# The source made the active and inactive calls.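 The calls were made as follows: active = IC50 below 100 µM from duplicate concentration-response curves; inactive = IC50 above 100 µM.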
# Target: Regulator of G-protein signaling 4 (Rattus norvegicus) (UniProt P49799)
# Experiment: inhibitors of RGS4–Galphao protein interaction, dose response, biochemical, rat RGS4, AlF4-dependent, flow cytometry bead assay (AID 588523)
# Conditions: FCPIA, RGS4-Galpha-o binding, bead fluorescence
# Chain of Regulator of G-protein signaling 4 (Rattus norvegicus) (P49799 whole entry, looked up): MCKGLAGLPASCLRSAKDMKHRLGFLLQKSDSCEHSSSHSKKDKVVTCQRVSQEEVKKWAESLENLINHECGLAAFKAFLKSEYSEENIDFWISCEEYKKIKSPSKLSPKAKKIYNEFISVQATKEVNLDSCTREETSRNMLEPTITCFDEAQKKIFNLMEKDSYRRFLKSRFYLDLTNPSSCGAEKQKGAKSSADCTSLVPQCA
row,SMILES,IC50
1,COC(=O)CSc1[nH]c2ccccc2c1[N+](=O)[O-],> 110 µM (inactive)
2,CCOCCCNC(=O)/C(C#N)=C\c1ccc(Cl)c([N+](=O)[O-])c1,> 110 µM (inactive)
3,CN(C)C(=O)COc1ccc(C(=O)/C=C/c2cccnc2)cc1,> 110 µM (inactive)
4,N#C/C(=C/c1ccc(Cl)c([N+](=O)[O-])c1)c1ccccn1,> 110 µM (inactive)
5,Cc1cc2nc(CS)[nH]c2cc1C,23.6 µM
6,COC(=O)CSc1[nH]c2cc(C)ccc2c1[N+](=O)[O-],> 110 µM (inactive)
7,Cc1ccc(C(C2C(=O)CC(C)(C)CC2=O)C2C(=O)CC(C)(C)CC2=O)s1,86.8 µM
8,Cc1ccc(CNC(=O)c2cn(C3CCCCC3)c(=O)c3c2c2ccccc2n3C)o1,> 110 µM (inactive)
9,O=C1C=C(NC2=CC3OC(c4ccccc4)OCC3OC2=O)CCC1 (stereo not drawn),> 110 µM (inactive)
10,O=C(O)c1ccc2c(c1)C(=O)N(c1cccc(C(=O)/C=C/c3ccccc3)c1)C2=O,> 110 µM (inactive)
11,O=C(/C=C/c1ccc([N+](=O)[O-])cc1)c1ccco1,> 110 µM (inactive)
12,O=C(N/N=C/c1cc([N+](=O)[O-])ccc1O)NC12CC3CC(CC(C3)C1)C2,> 110 µM (inactive)
13,Cc1nc2c(=O)n(C)c(=O)n(C)c2nc1Cl,78.7 µM
14,CC1=NN(c2ccc(C(=O)O)cc2)C(=O)/C1=C\c1ccc(OC(=O)c2cccs2)cc1,44 µM
15,Cc1c(NC(=O)c2coc(=O)c(Br)c2)c(=O)n(-c2ccccc2)n1C,> 110 µM (inactive)
16,CC(C)OP(=O)(OC(C)C)/C(C=O)=N\Nc1ccc([N+](=O)[O-])cc1,> 110 µM (inactive)
17,O=C(O)c1ccc(/C=C2\COc3ccccc3C2=O)cc1,> 110 µM (inactive)
18,COc1ccc(-c2csc(NC3OC(=O)c4c3ccc(OC)c4OC)n2)cc1OC (stereo not drawn),> 110 µM (inactive)
19,Oc1c(Cl)cc(Cl)c2c1NCCC2,> 110 µM (inactive)
20,COc1ccc(NC(=O)/C(C#N)=C\c2ccc(Sc3nncn3C)c([N+](=O)[O-])c2)cc1,> 110 µM (inactive)

row,SMILES,IC50
1,Cn1c(OCc2ccco2)nc2c1c(=O)n(Cc1ccc(Cl)c(Cl)c1)c(=O)n2C,> 110 µM (inactive)
2,CN1C/C(=C/c2ccncc2)C(=O)/C(=C/c2ccncc2)C1,5.4 µM
3,COc1cccc(/C=C/C(=O)c2c(O)cc(C)oc2=O)c1O,> 110 µM (inactive)
4,CN(C)c1oc(-c2ccccc2[N+](=O)[O-])nc1C#N,> 110 µM (inactive)
5,CN1C(=O)S/C(=C\c2ccccc2OCc2ccc(C(=O)O)cc2)C1=O,> 110 µM (inactive)
6,O=C/C=C/c1c(-c2ccccc2)cc2oc3ccccc3cc1-2,> 110 µM (inactive)
7,O=C(/C=C/c1ccncc1)c1ccc2c(c1)OCCO2,82.2 µM
8,CCOC(=O)C1=C(O)/C(=C\c2cccc(OC)c2)N=C1C,> 110 µM (inactive)
9,Cc1ccccc1OCc1nnc(SCC(=O)Nc2ccc3c(c2)oc2ccccc23)n1C,> 110 µM (inactive)
10,Cc1cccc(N2C(=O)/C(=C/c3ccc(C(=O)O)cc3)c3ccccc3C2=O)c1,> 110 µM (inactive)
11,CC(C)(C)c1ccc(Cn2nnc3c(=O)[nH]c(C4CCN(C(=O)Cc5cccs5)CC4)nc32)cc1,> 110 µM (inactive)
12,Cc1ccc(C(C2=C(O)CC(C)(C)CC2=O)C2C(=O)CC(C)(C)CC2=O)o1 (stereo not drawn),> 110 µM (inactive)
13,O=C1/C(=C\c2ccc(Cl)cc2Cl)N2CCC1CC2,> 110 µM (inactive)
14,COc1ccc(C(C[N+](=O)[O-])c2c(-c3ccccc3)cc3ccccn23)cc1OC (stereo not drawn),> 110 µM (inactive)
15,O=C(CCNc1ccc(F)cc1)c1ccco1,> 110 µM (inactive)
16,CC1=NOC(=O)/C1=C/c1ccc(O)cc1,> 110 µM (inactive)
17,Cc1csc(NC(=O)COCC(=O)O)c1-c1nc2ccccc2s1,> 110 µM (inactive)
18,COc1cc2c(cc1O)C(SC)=NC(C)(C)C2,> 110 µM (inactive)
19,O=C1N=c2ccccc2=C1c1c(O)n(-c2cccc(F)c2)[nH]c1=O,10.3 µM
20,CCOC(=O)/C=C/C(=O)OCC(=O)N1CCN(C(=O)c2ccco2)CC1,73.9 µM

row,SMILES,IC50
1,Cc1ccc(/C=C2\C(=O)NC(=S)N(c3ccc(F)cc3)C2=O)s1,22.1 µM
2,CN1C(=O)/C(=C\c2ccc(Br)s2)C(=O)NC1=S,12.5 µM
3,O=C1/C(=C/c2ccncc2)CCC/C1=C\c1ccncc1,13.6 µM
4,CN(C)c1ccc(C(C[N+](=O)[O-])c2c(N)n(C)c(=O)n(C)c2=O)c(F)c1C#N (stereo not drawn),> 110 µM (inactive)
5,Cc1cc(-c2n[nH]c(=S)n2/N=C/C(Br)=C/c2ccccc2)n[nH]1,26.1 µM
6,O=C1/C(=C\c2ccc(Cl)c(Cl)c2)N2CCC1CC2,> 110 µM (inactive)
7,O=C(O)c1ccc(/C=C/C(=O)c2ccc3c(c2)OCCCO3)cc1,> 110 µM (inactive)
8,COc1ccc(NC(=O)/C(Cl)=C(/Cl)S(=O)Cc2ccccc2)cn1 (stereo not drawn),1.7 µM
9,O=[N+]([O-])c1ccc(O)c(/C=N/NC(=S)Nc2ccc(Cl)cc2Cl)c1,> 110 µM (inactive)
10,Cc1ccc(/C=C/C(=O)N2CC(C)CC(C)C2)o1 (stereo not drawn),74.9 µM
11,COc1ccc(OC)c(N2C(=O)NC(=O)/C(=C/c3ccc([N+](=O)[O-])s3)C2=O)c1,11.9 µM
12,NC(=O)N/N=C/c1c(Sc2nnnn2-c2ccccc2)nc2ccccn2c1=O,> 110 µM (inactive)
13,CCOCCCNC(=O)/C(C#N)=C\c1ccc([N+](=O)[O-])o1,> 110 µM (inactive)
14,O=C1NC(=S)N(c2ccccc2F)C(=O)/C1=C\c1cccs1,21.3 µM
15,N[C@@H](Cc1cc(Br)c(O)c(Br)c1)C(=O)O,> 110 µM (inactive)
16,COc1ccc2cc(C3C(C#N)=C(N)OC(C)=C3C(C)=O)c(Cl)nc2c1 (stereo not drawn),> 110 µM (inactive)
17,CCCN1CCc2cc(O)cc3c2[C@H]1Cc1ccc(O)c(O)c1-3,9.4 µM
18,CN1CCc2cc(O)cc3c2[C@H]1Cc1ccc(O)c(O)c1-3,7.5 µM
